Read-outs that look alike come from different tables or passages of the source.

The subject of data set [1] is EBOV. Particulars: cited from earlier work.
Data set [2] relates to HIV-1/LASV pseudovirus. Kind of data set: microbe, parasite or virus in culture. The format is cell-based. Conditions: for inhibition at 10 µM: Human immunodeficiency virus 1, A549, 48 h, read-out: Inhibition HIV-1/LASV; for Inhibition HIV/LASV: 10 µM.
In data set [3] the test system is HIV-1/H5N1 pseudovirus. Kind of data set: organism not typed. The format is cell-based, influenza A virus A/Goose/Qinghai/59/05 (H5N1). Particulars: for inhibition at 10 µM: A549, 48 h, read-out: Inhibition HIV-1/H5N1; for Inhibition HIV/H5N1: 10 µM.
For data set [4], the system named is HIV-1/EBOV pseudovirus. Description: organism not typed. Conditions: A549, 48 h, read-out: Inhibition HIV-1/EBOV.
Data set [5] deals with HIV-1/EBOV pseudovirus. Description: microbe, parasite or virus in culture. Particulars: Zaire ebolavirus, A549, read-out: IC50 (anti-HIV-1/EBOV).
Data set [6] can be described thus: in vitro. Particulars: human.
Data set [7] relates to HIV-1/EBOV pseudovirus. Conditions: for Inhibition HIV/EBOV: 10 µM.
Data set [8] relates to EBOV Mayinga isolate (EBOV-GFP). Kind of data set: microbe, parasite or virus in culture. Format: cell-based, Ebola virus. Conditions: for IC50: read-out: IC50 against replication of infectious EBOV.
In data set [9] the target is Ebola glycoprotein. Particulars: cited from earlier work.
The subject of data set [10] is A549 cells. Particulars: 10 µM.

In the case of `CCN(CC)CC(=O)NCc1cc(-c2ccc(I)cc2)no1` [3,5-Disubstituted isoxazole], in data set [1], the IC50 is 2.5 µM.

The viability is a read-out of living cells in per cent, often relative to untreated cells. Regarding `CN(C)Cc1ccc(-c2cc3cc(Br)ccc3nc2OCc2ccc(Cl)cc2)cc1` [SYL1712], the inhibition at 10 µM in data set [2] amounted to 55.4%; in data set [3], 5.75%; in data set [4], 99.4%. The IC50 is about 1 µM in data set [5]; 0.95 µM in data set [7] (read-out: IC50 (anti-HIV-1/EBOV)); 2 µM in data set [8] (Zaire ebolavirus, HeLa, 24 h); 1.99 µM in [8]. For the same compound, in [6], the viability at 10 µM is 96.9%. Further, in [7], the “SI (CC50/IC50)” value came to 225.9. Further, in [8], the “selective index (SI)” value turned out to be 37.2.

Regarding `COc1ccc(CC(O)(c2ccccc2CN(C)C)c2cc3cc(Br)ccc3nc2OC)cc1` (stereo not shown) [SYL1655], the figures for the inhibition at 10 µM in data set [2], in data set [3] and in data set [4] were 28.9%, -17.2% and 90.3%, respectively. Moreover, the IC50 in data set [5] is 2.65 µM. This compound returned a CC50 in data set [6] of 132 µM. The viability at 10 µM in data set [6] was 95.3%. Further, the “SI (CC50/IC50)” value in data set [7] turned out to be 49.9.

Turning to `CN(C)Cc1ccc(-c2cc3cc(Br)ccc3nc2-n2ccnc2)cc1` [SYL1711], the inhibition at 10 µM in [2] came out at 25.5%; in data set [3] it was 38.3%; in data set [4], 98.7%. Moreover, the IC50 in [5] was found to be 4.11 µM. Also, in data set [6], the CC50 is 242 µM. Further, the viability at 10 µM in data set [6] was found to be 90.7%. Further, the “SI (CC50/IC50)” value in [7] worked out at 58.9.

With `COc1nc2ccc(Br)cc2cc1C(O)(CCc1ccccc1)c1ccccc1CN(C)C` (stereo not shown) [SYL1654], the inhibition at 10 µM in data set [2] amounted to 18.8%; in data set [3] it was 8.04%; in [4], 84.8%. Further, the IC50 in data set [5] is 4.98 µM. In data set [6], the CC50 is 222 µM. Moreover, in [6], the viability at 10 µM was determined as 94.7%. Also, the “SI (CC50/IC50)” value in data set [7] was determined as 44.7.

For `Brc1ccc2nc(OCc3cccc4ccccc34)c(-c3ccc(CNC45CC6CC(CC(C6)C4)C5)cc3)cc2c1` [SYL1683], the inhibition at 10 µM in data set [2] stood at 26.3%; in data set [3], 21.7%; in data set [4], 95.7%. The IC50 in data set [5] was 2.93 µM. Also, in data set [6], the CC50 came out at 235 µM. The viability at 10 µM in data set [6] was 104%. Further, the “SI (CC50/IC50)” value in data set [7] was 80.3.

As for `COC1=Nc2ccccc2C(C2(c3ccccc3)CCN(C)CC2)C1C(=O)c1ccccc1` (stereo not shown) [SYL1660], the inhibition at 10 µM is -26.6% in [2], 3.34% in data set [3] and 97.5% in [4]. Also, in data set [5], the IC50 was determined as 2.58 µM. Besides, the CC50 in data set [6] amounted to 185 µM. For the same compound, the viability at 10 µM in [6] amounted to 106%. Also, in data set [7], the “SI (CC50/IC50)” value worked out at 71.6.

On to `O=c1oc2c(O)c(O)cc3c(=O)oc4c(O)c(O)cc1c4c23` [Ellagic acid], for which the IC50 in [1] was 1.4 µM.

One may read the IC90 as the concentration at which the effect reaches the 90% level. Consider `COc1ccc(S(=O)(=O)N(CC(=O)Nc2ccccc2-c2ccccc2)c2ccc(C)cc2)cc1` [MBX 2254], for which the IC90 in data set [1] was 3 µM.

By Kd is commonly meant the concentration at which binding is half-saturated. For `CN(C)CCOc1ccc(/C(=C(/CCCl)c2ccccc2)c2ccccc2)cc1` [Toremifene], the dissociation constant (Kd) in [9] was 16 µM.

With `COc1cccc(COc2nc3ccc(Br)cc3cc2-c2cccc(CN(C)C)c2)c1` [SYL1657], the inhibition at 10 µM stood at 25.8% in data set [2], 0.16% in [3] and 89.2% in data set [4]. In data set [5], the IC50 came out at 3.56 µM. Further, in data set [6], the CC50 was determined as 215 µM. In data set [6], the viability at 10 µM was found to be 93.9%. Besides, in data set [7], the “SI (CC50/IC50)” value was determined as 60.3.

In the case of `CN(C)Cc1ccc(-c2cc3ccccc3nc2OCc2cccc3ccccc23)cc1` [SYL1701], the “Inhibition HIV/LASV” value in [2] worked out at 97.96%. The “Inhibition HIV/H5N1” value in [3] is reported as 98.51%. In addition, the “Inhibition HIV/EBOV” value in data set [7] stood at 99.94%. In data set [10], the “Cell Viability” value came to 88.01%.

In the case of `CN(C)CCN1CCN(Cc2ccc(-c3cc4cc(Br)ccc4nc3OCc3cccc4ccccc34)cc2)CC1` [SYL1688], in data set [2], the “Inhibition HIV/LASV” value was 88.12%. Further, the “Inhibition HIV/H5N1” value in [3] was 91.36%. Also, the “Inhibition HIV/EBOV” value in [7] is on record as 99.92%. In [10], the “Cell Viability” value is recorded as 80.00%.

With `COc1nc2ccccc2cc1C(c1ccccc1)n1c(=O)n(CCCN(C)C)c2ccccc21` (stereo not shown) [SYL1625], the “Inhibition HIV/LASV” value in data set [2] stood at 87.77%. Moreover, the “Inhibition HIV/H5N1” value in data set [3] is reported as -0.36%. Besides, the “Inhibition HIV/EBOV” value in data set [7] is 99.90%. The “Cell Viability” value in data set [10] is recorded as 86.95%.

In the case of `COc1nc2ccccc2cc1C(O)(Cc1cccc(F)c1)c1ccccc1CN(C)C` (stereo not shown) [SYL1640], the inhibition at 10 µM in data set [2] is -15.1%; in data set [3] it was -1.97%; in data set [4], 79.1%. Moreover, the IC50 in data set [5] was found to be 2.96 µM. For the same compound, the CC50 in [6] is 190 µM. Also, the viability at 10 µM in data set [6] worked out at 97.6%. Further, the “SI (CC50/IC50)” value in data set [7] is 64.3.

Consider `Fc1cccc(COc2nc3ccc(Br)cc3cc2-c2cccc(Oc3ccccn3)c2)c1` [SYL1647], for which the “Inhibition HIV/LASV” value in [2] amounted to 89.08%. For the same compound, the “Inhibition HIV/H5N1” value in [3] was 44.09%. For the same compound, the “Inhibition HIV/EBOV” value in data set [7] turned out to be 99.94%. Further, the “Cell Viability” value in [10] is recorded as 82.66%.

Take `CNCCc1ccc(-c2cc3cc(Br)ccc3nc2OCc2cccc3ccccc23)cc1` [SYL1672]: the “Inhibition HIV/LASV” value in data set [2] is 99.22%. Besides, in data set [3], the “Inhibition HIV/H5N1” value is 98.01%. The “Inhibition HIV/EBOV” value in data set [7] is 99.85%. Moreover, the “Cell Viability” value in [10] was 2.06%.

Regarding `COc1nc2ccccc2cc1C(O)(Cc1cccc(F)c1)c1cccc(CN(C)C)c1` (stereo not shown) [SYL1659], the “Inhibition HIV/LASV” value in [2] came out at 97.39%. In data set [3], the “Inhibition HIV/H5N1” value was 96.52%. Moreover, in data set [7], the “Inhibition HIV/EBOV” value was determined as 99.09%. Besides, the “Cell Viability” value in [10] came to 36.09%.

Take `COc1nc2ccccc2cc1C(O)(Cc1cccc(F)c1)c1ccccc1CN1CCOCC1` (stereo not shown) [SYL1668]: the “Inhibition HIV/LASV” value in data set [2] was 86.46%. The “Inhibition HIV/H5N1” value in [3] is 74.86%. In data set [7], the “Inhibition HIV/EBOV” value turned out to be 99.87%. The “Cell Viability” value in data set [10] came out at 79.06%.

As for `COc1nc2ccccc2cc1C(c1ccccc1)C(O)(CC(=O)N(C)C)c1cccc2ccccc12` (stereo not shown) [SYL1642], the inhibition at 10 µM in [2] was determined as 35%; in data set [3], 14.1%; in [4] it was 92.2%. The IC50 in [5] was 5.21 µM. The CC50 in data set [6] is 152 µM. The viability at 10 µM in data set [6] is 72.3%. In data set [7], the “SI (CC50/IC50)” value worked out at 29.2.

On to `CN(C)CCNc1nc2ccc(Br)cc2cc1-c1ccc(CN(C)C)cc1` [SYL1721], for which the “Inhibition HIV/LASV” value in data set [2] is recorded as 99.50%. For the same compound, in data set [3], the “Inhibition HIV/H5N1” value was 98.20%. The “Inhibition HIV/EBOV” value in [7] is reported as 99.63%. Besides, in data set [10], the “Cell Viability” value was determined as 1.26%.

On to `COc1nc2ccc(Br)cc2cc1C(Nc1ccccc1OCCN(C)C)c1ccccc1` (stereo not shown) [SYL1622], for which, in data set [2], the “Inhibition HIV/LASV” value is listed as 83.38%. For the same compound, the “Inhibition HIV/H5N1” value in [3] was found to be 96.99%. Also, the “Inhibition HIV/EBOV” value in data set [7] came to 99.12%. The “Cell Viability” value in data set [10] is 77.49%.

Turning to `FC(F)C(F)(F)C1=Nc2ccccc2N=C(c2ccccc2)C1` [benzodiazepine], the concentration for an effect of 90% (IC90) in data set [1] is 3.5 µM.

As to `CC(=NOCCN(C)C)c1cc2ccccc2nc1Oc1cccc2ccccc12` [SYL1626], the “Inhibition HIV/LASV” value in [2] stood at 85.39%. In data set [3], the “Inhibition HIV/H5N1” value worked out at 44.19%. Further, the “Inhibition HIV/EBOV” value in data set [7] turned out to be 99.66%. Moreover, in data set [10], the “Cell Viability” value is given as 86.91%.

In the case of `CNCCNCc1ccc(-c2cc3cc(Br)ccc3nc2OCc2cccc3ccccc23)cc1` [SYL1679], in data set [2], the “Inhibition HIV/LASV” value was 97.63%. Moreover, the “Inhibition HIV/H5N1” value in [3] came out at 96.95%. Moreover, the “Inhibition HIV/EBOV” value in data set [7] was found to be 99.70%. The “Cell Viability” value in data set [10] is 117.07%.

For `COc1ccc2nc(OCc3cccc4ccccc34)c(-c3ccc(CN(C)C)cc3)cc2c1` [SYL1702], the “Inhibition HIV/LASV” value in data set [2] stood at 89.93%. In addition, the “Inhibition HIV/H5N1” value in [3] is 87.31%. For the same compound, the “Inhibition HIV/EBOV” value in [7] is 99.95%. Further, the “Cell Viability” value in data set [10] was 89.90%.

With `COc1cccc(COc2nc3ccc(Br)cc3cc2-c2ccc(CN(C)C)cc2)c1` [SYL1707], in data set [2], the “Inhibition HIV/LASV” value worked out at 78.74%. Moreover, the “Inhibition HIV/H5N1” value in data set [3] was 95.43%. In addition, in data set [7], the “Inhibition HIV/EBOV” value stood at 99.14%. In addition, the “Cell Viability” value in [10] came out at 80.79%.

As to `Brc1ccc2nc(OCc3cccc4ccccc34)c(-c3cnn(C4CCCCO4)c3)cc2c1` (stereo not shown) [SYL1658], the inhibition at 10 µM in data set [2] was found to be 19.2%; in data set [3], 36.9%; in data set [4], 77.4%. Moreover, the IC50 in data set [5] came to 8.65 µM. The compound further had a CC50 in data set [6] of 110 µM. Further, the viability at 10 µM in [6] came to 72.7%. Also, the “SI (CC50/IC50)” value in data set [7] was 12.7.

These data come from paper PMC6315506 (Viruses, 2018).
